Measured values published in the kinase profiling compilation of Christmann-Franck et al. (2016).

How the values were obtained:
Assay in all cases: radiometric filter-binding kinase assay
[1] = test system: AKT2 (human), P31751 [S474D]
AURKB (human) = AURKB (human) (UniProt Q96GD4)
CAMKK2 (human) = CAMKK2 (human) (UniProt Q96RR4)
CDK2 CCNA2 (human) = CDK2 CCNA2 (human) (UniProt P20248+P24941)
CHEK1 (human) = CHEK1 (human) (UniProt O14757)
CSNK2A1 (human) = CSNK2A1 (human) (UniProt P68400)
CaMK1 (human) = CaMK1 (human) (UniProt Q14012)
Sequence of CaMK1 (human) (Q14012 whole entry, looked up): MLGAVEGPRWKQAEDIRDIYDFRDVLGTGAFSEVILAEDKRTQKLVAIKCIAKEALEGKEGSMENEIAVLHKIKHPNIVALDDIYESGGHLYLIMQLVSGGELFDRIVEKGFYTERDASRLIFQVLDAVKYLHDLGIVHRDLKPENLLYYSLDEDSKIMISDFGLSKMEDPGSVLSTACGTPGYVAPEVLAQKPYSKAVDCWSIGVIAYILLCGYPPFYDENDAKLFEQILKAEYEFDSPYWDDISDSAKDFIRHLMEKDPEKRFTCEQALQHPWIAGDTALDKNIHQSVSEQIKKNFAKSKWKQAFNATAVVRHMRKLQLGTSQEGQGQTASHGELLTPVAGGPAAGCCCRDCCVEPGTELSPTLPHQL

DYRK1A (human) = DYRK1A (human) (UniProt Q13627)
EPHB3 (human) = EPHB3 (human) (UniProt P54753)
IGF1R (human) = IGF1R (human) (UniProt P08069)
Sequence of IGF1R (human) (P08069 whole entry, looked up): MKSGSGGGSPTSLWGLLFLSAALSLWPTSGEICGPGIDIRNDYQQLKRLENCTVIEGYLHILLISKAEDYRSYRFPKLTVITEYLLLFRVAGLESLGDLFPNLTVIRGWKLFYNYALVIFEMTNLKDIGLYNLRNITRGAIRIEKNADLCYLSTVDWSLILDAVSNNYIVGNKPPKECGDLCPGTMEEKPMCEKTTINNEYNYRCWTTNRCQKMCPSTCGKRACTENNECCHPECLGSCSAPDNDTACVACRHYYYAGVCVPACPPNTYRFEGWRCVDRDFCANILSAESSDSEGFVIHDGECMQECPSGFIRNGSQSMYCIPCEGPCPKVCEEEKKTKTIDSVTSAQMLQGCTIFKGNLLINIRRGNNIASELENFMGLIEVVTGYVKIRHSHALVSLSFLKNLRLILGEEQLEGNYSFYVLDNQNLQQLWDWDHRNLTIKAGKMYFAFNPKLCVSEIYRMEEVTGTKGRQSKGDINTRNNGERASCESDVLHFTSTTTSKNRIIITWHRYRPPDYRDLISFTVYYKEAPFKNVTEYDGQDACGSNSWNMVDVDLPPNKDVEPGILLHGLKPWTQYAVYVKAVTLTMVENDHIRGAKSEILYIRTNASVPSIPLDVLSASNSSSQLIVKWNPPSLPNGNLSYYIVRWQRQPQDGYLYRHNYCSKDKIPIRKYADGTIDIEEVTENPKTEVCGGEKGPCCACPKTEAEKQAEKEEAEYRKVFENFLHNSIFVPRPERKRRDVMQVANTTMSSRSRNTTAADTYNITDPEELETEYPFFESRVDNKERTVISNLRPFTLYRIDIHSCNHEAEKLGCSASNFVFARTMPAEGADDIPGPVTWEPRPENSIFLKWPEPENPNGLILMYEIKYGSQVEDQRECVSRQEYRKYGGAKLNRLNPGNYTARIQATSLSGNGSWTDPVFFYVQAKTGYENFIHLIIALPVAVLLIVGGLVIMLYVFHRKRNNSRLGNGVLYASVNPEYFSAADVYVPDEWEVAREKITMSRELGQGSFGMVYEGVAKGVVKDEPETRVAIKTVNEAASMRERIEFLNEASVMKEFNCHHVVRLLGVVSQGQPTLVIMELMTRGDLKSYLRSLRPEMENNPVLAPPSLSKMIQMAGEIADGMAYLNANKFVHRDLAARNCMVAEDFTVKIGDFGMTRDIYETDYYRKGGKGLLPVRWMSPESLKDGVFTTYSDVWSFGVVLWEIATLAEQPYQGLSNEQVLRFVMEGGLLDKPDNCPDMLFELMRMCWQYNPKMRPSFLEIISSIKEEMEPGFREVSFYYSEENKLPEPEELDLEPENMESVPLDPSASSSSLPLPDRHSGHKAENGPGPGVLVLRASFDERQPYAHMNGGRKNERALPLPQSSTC

INSR (human) = INSR (human) (UniProt P06213)
INSRR (human) = INSRR (human) (UniProt P14616)
JAK2 JH1 JH2 (human) = JAK2 JH1 JH2 (human) (UniProt O60674)
Sequence of JAK2 JH1 JH2 (human) (O60674 whole entry, looked up): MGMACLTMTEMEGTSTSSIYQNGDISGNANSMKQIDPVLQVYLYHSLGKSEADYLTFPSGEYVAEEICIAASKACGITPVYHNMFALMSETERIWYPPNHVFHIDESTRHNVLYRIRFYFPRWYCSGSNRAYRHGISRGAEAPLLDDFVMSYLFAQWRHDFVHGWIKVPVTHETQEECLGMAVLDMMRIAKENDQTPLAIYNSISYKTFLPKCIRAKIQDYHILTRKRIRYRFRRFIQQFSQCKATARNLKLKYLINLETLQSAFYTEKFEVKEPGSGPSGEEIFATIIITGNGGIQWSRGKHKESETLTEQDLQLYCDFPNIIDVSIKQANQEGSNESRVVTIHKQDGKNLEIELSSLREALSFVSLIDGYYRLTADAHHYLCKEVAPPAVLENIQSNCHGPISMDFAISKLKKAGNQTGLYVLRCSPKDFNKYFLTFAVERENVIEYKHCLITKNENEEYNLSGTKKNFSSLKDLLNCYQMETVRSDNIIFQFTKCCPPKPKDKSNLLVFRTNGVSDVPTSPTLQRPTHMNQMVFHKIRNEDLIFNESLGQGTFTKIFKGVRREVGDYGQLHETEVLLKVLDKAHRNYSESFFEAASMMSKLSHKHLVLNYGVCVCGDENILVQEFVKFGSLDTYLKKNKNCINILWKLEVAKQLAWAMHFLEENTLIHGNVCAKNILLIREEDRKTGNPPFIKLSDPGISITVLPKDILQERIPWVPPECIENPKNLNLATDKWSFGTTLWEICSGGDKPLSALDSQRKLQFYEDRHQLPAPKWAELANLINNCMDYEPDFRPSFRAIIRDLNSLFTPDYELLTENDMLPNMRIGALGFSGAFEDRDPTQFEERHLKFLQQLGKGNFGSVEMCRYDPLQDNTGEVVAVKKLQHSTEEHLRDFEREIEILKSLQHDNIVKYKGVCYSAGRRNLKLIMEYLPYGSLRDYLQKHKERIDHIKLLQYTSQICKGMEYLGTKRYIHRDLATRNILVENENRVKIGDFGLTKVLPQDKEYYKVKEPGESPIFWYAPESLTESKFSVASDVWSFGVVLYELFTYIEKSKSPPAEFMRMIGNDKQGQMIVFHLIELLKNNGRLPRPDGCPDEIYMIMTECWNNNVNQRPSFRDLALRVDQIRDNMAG

LCK (mouse) = settings: accession and sequence are those of the human protein
MAP2K1 (human) = MAP2K1 (human) (UniProt Q02750)
MAP3K11 (human) = MAP3K11 (human) (UniProt Q16584)
MAP3K9 (human) = MAP3K9 (human) (UniProt P80192)
MAPK10 (human) = MAPK10 (human) (UniProt P53779)
Sequence of MAPK10 (human) (P53779 whole entry, looked up): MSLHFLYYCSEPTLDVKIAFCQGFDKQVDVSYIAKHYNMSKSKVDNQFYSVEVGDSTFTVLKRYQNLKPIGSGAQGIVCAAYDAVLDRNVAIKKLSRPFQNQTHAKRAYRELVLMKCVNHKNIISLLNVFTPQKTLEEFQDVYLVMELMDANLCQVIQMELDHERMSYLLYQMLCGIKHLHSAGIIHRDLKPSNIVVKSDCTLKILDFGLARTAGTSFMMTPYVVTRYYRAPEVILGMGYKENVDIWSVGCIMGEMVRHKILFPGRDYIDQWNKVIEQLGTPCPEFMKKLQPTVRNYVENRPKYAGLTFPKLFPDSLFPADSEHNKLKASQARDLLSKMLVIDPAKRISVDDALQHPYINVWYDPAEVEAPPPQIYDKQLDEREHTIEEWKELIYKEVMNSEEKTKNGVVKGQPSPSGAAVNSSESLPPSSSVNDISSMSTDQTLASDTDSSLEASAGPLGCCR

MAPK13 (human) = MAPK13 (human) (UniProt O15264)
MARK3 (human) = MARK3 (human) (UniProt P27448)
MARK4 (human) = MARK4 (human) (UniProt Q96L34)
Sequence of MARK4 (human) (Q96L34 whole entry, looked up): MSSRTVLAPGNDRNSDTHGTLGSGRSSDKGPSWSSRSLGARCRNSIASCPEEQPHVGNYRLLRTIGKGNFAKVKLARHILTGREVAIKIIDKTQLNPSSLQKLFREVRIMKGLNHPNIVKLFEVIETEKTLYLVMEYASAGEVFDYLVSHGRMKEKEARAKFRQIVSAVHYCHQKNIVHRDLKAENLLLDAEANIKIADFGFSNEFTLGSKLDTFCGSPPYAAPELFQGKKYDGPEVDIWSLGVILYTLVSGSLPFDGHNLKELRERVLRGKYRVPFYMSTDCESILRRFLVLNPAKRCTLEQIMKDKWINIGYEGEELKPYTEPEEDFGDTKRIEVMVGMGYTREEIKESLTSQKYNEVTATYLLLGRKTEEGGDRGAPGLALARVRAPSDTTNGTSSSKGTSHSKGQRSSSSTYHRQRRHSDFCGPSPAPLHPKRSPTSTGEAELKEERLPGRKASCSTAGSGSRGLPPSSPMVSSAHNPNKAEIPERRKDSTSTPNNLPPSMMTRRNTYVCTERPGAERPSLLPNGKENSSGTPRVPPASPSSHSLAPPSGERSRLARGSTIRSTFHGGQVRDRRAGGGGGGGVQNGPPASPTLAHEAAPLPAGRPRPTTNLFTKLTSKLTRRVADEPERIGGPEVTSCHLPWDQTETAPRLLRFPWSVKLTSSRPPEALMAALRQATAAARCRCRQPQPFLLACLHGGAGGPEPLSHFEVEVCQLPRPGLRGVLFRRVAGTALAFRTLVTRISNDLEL

MINK1 (human) = MINK1 (human) (UniProt Q8N4C8)
MKNK1 (human) = MKNK1 (human) (UniProt Q9BUB5)
MST4 (human) = MST4 (human) (UniProt Q9P289)
Sequence of MST4 (human) (Q9P289 whole entry, looked up): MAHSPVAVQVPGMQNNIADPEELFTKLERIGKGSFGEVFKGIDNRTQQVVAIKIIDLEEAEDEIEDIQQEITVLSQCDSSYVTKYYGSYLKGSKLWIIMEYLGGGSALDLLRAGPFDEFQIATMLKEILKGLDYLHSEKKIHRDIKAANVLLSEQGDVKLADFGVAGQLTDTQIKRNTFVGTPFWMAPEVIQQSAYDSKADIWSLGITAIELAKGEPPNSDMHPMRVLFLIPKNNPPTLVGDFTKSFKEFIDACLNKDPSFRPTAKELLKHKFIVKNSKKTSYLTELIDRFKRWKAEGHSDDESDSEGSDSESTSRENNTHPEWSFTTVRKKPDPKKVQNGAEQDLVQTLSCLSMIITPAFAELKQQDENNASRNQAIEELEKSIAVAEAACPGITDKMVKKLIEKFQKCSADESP

NTRK1 (human) = NTRK1 (human) (UniProt P04629)
NUAK1 (human) = NUAK1 (human) (UniProt O60285)
PAK4 (human) = PAK4 (human) (UniProt O96013)
PHKG1 (human) = PHKG1 (human) (UniProt Q16816)
PIM2 (human) = PIM2 (human) (UniProt Q9P1W9)
PRKAA1 or PRKAA2 (rat) = settings: accession and sequence are those of the human protein
PRKACA (human) = PRKACA (human) (UniProt P17612)
PRKCZ (human) = PRKCZ (human) (UniProt Q05513)
RIPK2 (human) = RIPK2 (human) (UniProt O43353)
SRC (human) = SRC (human) (UniProt P12931)
Sequence of SRC (human) (P12931 whole entry, looked up): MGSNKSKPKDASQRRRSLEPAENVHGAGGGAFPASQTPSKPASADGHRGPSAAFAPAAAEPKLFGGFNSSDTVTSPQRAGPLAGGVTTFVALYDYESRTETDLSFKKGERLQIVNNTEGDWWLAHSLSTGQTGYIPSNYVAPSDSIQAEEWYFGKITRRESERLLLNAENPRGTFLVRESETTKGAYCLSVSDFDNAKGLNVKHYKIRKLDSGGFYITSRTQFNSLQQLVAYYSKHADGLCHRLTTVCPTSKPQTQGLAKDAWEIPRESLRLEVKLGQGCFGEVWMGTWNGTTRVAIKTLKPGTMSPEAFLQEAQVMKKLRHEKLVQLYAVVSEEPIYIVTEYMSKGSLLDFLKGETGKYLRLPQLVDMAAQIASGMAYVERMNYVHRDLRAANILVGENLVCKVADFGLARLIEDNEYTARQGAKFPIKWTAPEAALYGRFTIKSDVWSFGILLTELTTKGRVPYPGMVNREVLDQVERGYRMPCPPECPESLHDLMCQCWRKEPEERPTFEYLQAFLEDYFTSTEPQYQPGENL

SYK (human) = SYK (human) (UniProt P43405)
YES1 (human) = YES1 (human) (UniProt P07947)

residual activity ([1]; compound 0.01 µM): 97%
residual activity ([1]; compound 0.1 µM): 103%
residual activity ([1]; compound 1.0 µM): 94%
residual activity (AURKB (human); compound 0.01 µM): 93%
residual activity (AURKB (human); compound 0.1 µM): 103%
residual activity (AURKB (human); compound 1.0 µM): 89%
residual activity (CAMKK2 (human); compound 0.01 µM): 108%
residual activity (CAMKK2 (human); compound 0.1 µM): 96%
residual activity (CAMKK2 (human); compound 1.0 µM): 105%
residual activity (CDK2 CCNA2 (human); compound 0.01 µM): 95%
residual activity (CDK2 CCNA2 (human); compound 0.1 µM): 98%
residual activity (CDK2 CCNA2 (human); compound 1.0 µM): 85%
residual activity (CHEK1 (human); compound 0.01 µM): 103%
residual activity (CHEK1 (human); compound 0.1 µM): 99%
residual activity (CHEK1 (human); compound 1.0 µM): 104%
residual activity (CSNK2A1 (human); compound 0.01 µM): 99%
residual activity (CSNK2A1 (human); compound 0.1 µM): 127%
residual activity (CSNK2A1 (human); compound 1.0 µM): 102%
residual activity (CaMK1 (human); compound 0.01 µM): 116%
residual activity (CaMK1 (human); compound 0.1 µM): 128%
residual activity (CaMK1 (human); compound 1.0 µM): 109%
residual activity (DYRK1A (human); compound 0.01 µM): 94%
residual activity (DYRK1A (human); compound 0.1 µM): 92%
residual activity (DYRK1A (human); compound 1.0 µM): 81%
residual activity (EPHB3 (human); compound 0.01 µM): 99%
residual activity (EPHB3 (human); compound 0.1 µM): 95%
residual activity (EPHB3 (human); compound 1.0 µM): 99%
residual activity (IGF1R (human); compound 0.01 µM): 88%
residual activity (IGF1R (human); compound 0.1 µM): 89%
residual activity (IGF1R (human); compound 1.0 µM): 79%
residual activity (INSR (human); compound 0.01 µM): 107%
residual activity (INSR (human); compound 1.0 µM): 100%
residual activity (INSRR (human); compound 0.01 µM): 91%
residual activity (INSRR (human); compound 0.1 µM): 104%
residual activity (INSRR (human); compound 1.0 µM): 94%
residual activity (JAK2 JH1 JH2 (human); compound 0.01 µM): 114%
residual activity (JAK2 JH1 JH2 (human); compound 0.1 µM): 100%
residual activity (JAK2 JH1 JH2 (human); compound 1.0 µM): 100%
residual activity (LCK (mouse); compound 0.01 µM): 106%
residual activity (LCK (mouse); compound 0.1 µM): 97%
residual activity (LCK (mouse); compound 1.0 µM): 95%
residual activity (MAP2K1 (human); compound 0.01 µM): 72%
residual activity (MAP2K1 (human); compound 0.1 µM): 76%
residual activity (MAP2K1 (human); compound 1.0 µM): 61%
residual activity (MAP3K11 (human); compound 0.01 µM): 88%
residual activity (MAP3K11 (human); compound 0.1 µM): 104%
residual activity (MAP3K11 (human); compound 1.0 µM): 87%
residual activity (MAP3K9 (human); compound 0.01 µM): 90%
residual activity (MAP3K9 (human); compound 0.1 µM): 80%
residual activity (MAP3K9 (human); compound 1.0 µM): 75%
residual activity (MAPK10 (human); compound 0.01 µM): 85%
residual activity (MAPK10 (human); compound 0.1 µM): 88%
residual activity (MAPK10 (human); compound 1.0 µM): 79%
residual activity (MAPK13 (human); compound 0.01 µM): 102%
residual activity (MAPK13 (human); compound 0.1 µM): 90%
residual activity (MAPK13 (human); compound 1.0 µM): 90%
residual activity (MARK3 (human); compound 0.01 µM): 83%
residual activity (MARK3 (human); compound 0.1 µM): 87%
residual activity (MARK3 (human); compound 1.0 µM): 86%
residual activity (MARK4 (human); compound 0.01 µM): 127%
residual activity (MARK4 (human); compound 0.1 µM): 111%
residual activity (MARK4 (human); compound 1.0 µM): 119%
residual activity (MINK1 (human); compound 0.01 µM): 125%
residual activity (MINK1 (human); compound 0.1 µM): 113%
residual activity (MINK1 (human); compound 1.0 µM): 120%
residual activity (MKNK1 (human); compound 0.01 µM): 94%
residual activity (MKNK1 (human); compound 0.1 µM): 99%
residual activity (MKNK1 (human); compound 1.0 µM): 98%
residual activity (MST4 (human); compound 0.01 µM): 106%
residual activity (MST4 (human); compound 0.1 µM): 99%
residual activity (MST4 (human); compound 1.0 µM): 106%
residual activity (NTRK1 (human); compound 0.01 µM): 80%
residual activity (NTRK1 (human); compound 0.1 µM): 83%
residual activity (NTRK1 (human); compound 1.0 µM): 81%
residual activity (NUAK1 (human); compound 0.01 µM): 100%
residual activity (NUAK1 (human); compound 0.1 µM): 116%
residual activity (NUAK1 (human); compound 1.0 µM): 98%
residual activity (PAK4 (human); compound 0.01 µM): 111%
residual activity (PAK4 (human); compound 0.1 µM): 98%
residual activity (PAK4 (human); compound 1.0 µM): 102%
residual activity (PHKG1 (human); compound 0.01 µM): 104%
residual activity (PHKG1 (human); compound 0.1 µM): 115%
residual activity (PHKG1 (human); compound 1.0 µM): 92%
residual activity (PIM2 (human); compound 0.01 µM): 106%
residual activity (PIM2 (human); compound 0.1 µM): 109%
residual activity (PIM2 (human); compound 1.0 µM): 108%
residual activity (PRKAA1 or PRKAA2 (rat); compound 0.01 µM): 108%
residual activity (PRKAA1 or PRKAA2 (rat); compound 0.1 µM): 93%
residual activity (PRKAA1 or PRKAA2 (rat); compound 1.0 µM): 108%
residual activity (PRKACA (human); compound 0.01 µM): 98%
residual activity (PRKACA (human); compound 0.1 µM): 99%
residual activity (PRKACA (human); compound 1.0 µM): 88%
residual activity (PRKCZ (human); compound 0.01 µM): 96%
residual activity (PRKCZ (human); compound 1.0 µM): 84%
residual activity (RIPK2 (human); compound 0.01 µM): 89%
residual activity (RIPK2 (human); compound 0.1 µM): 87%
residual activity (RIPK2 (human); compound 1.0 µM): 89%
residual activity (SRC (human); compound 0.01 µM): 100%
residual activity (SRC (human); compound 0.1 µM): 107%
residual activity (SRC (human); compound 1.0 µM): 102%
residual activity (SYK (human); compound 0.01 µM): 107%
residual activity (SYK (human); compound 0.1 µM): 99%
residual activity (YES1 (human); compound 0.01 µM): 81%
residual activity (YES1 (human); compound 0.1 µM): 87%
residual activity (YES1 (human); compound 1.0 µM): 74%
Compound: O=C(Nc1nc2cc(C(F)(F)F)cc(NC3CC3)n2n1)c1cccnc1
